The source of these data is patent publication US20030022251A1, “Gamma-secretase in vitro screening assay” (Boehringer Ingelheim Pharma KG, priority 2001, published 2003).

For assay [1], the target named is T1, γ-secretase (Homo sapiens, UniProt P49768).
T1 construct: HEK 293 cells stably transfected with swAPP were treated with the indicated concentrations of DAPT for 4 h; endogenous in cells; host or cells: HEK 293 cells stably transfected with swAPP695 (only the substrate is transfected; the γ-secretase is the cells' own)
In words: Analysis of secreted Aβ in conditioned media of HEK 293 swAPP cells (immunoprecipitation/immunoblotting with antibodies 3926/6E10). Format: cell-based. The following applies: DAPT for 4 h, FIG. 1B lower panel. How it is done: FIG. 1: Identification of in vivo produced CTFγ in human cells and mouse brain according to Example 1: (A) Membrane fractions of HEK 293 cells stably transfected with Swedish mutant βAPP695 (swAPP) were analyzed by combined immunoprecipitation/immunoblotting with antibody 6687 to the C-terminus of βAPP. Three βAPP CTFs were detected (C99 (=CTFβ), C83 (=CTFα), and the approximately 6 kDa CTFγ). The same βAPP CTFs including the approximately 6 kDa CTFγ were also observed by immunoblotting with antibody 6687 in mouse brain. (B) The γ-secretase inhibitor DAPT inhibits CTFγ production. HEK 293 cells stably transfected with swAPP were treated with the indicated concentrations of DAPT for 4 h. Upper and middle panel: Membrane fractions were prepared and analyzed for βAPP CTFs by combined immunoprecipitation/immunoblotting with antibody 6687. […] Lower panel: Conditioned media were analyzed for secreted Aβ by combined immunoprecipitation/immunoblotting with antibodies 3926/6E10. […] Membrane fractions from control cells expressing PS1 wt or cells stably expressing PS1 D385N were analyzed by combined immunoprecipitation/immunoblotting with antibody 6687. […]
Aβ was immunoprecipitated from conditioned media collected for 4 h with antibody 3926, separated on Tris-Tricine gels and detected by immunoblotting with antibody 6E10 using a chemiluminescent detection system (Tropix, USA).
On the technique in general: Immunoblotting shows a protein as a band on a membrane.

The test system of assay [2] is γ-secretase. The experiment in a line: In vitro generation of CTFγ from membrane preparations of HEK 293 cells stably transfected with swAPP (immunoblotting with antibody 6687). The assay is classed as biochemical, human. The settings on record: 250 nM DAPT. How it is done: FIG. 2: In vitro generation of CTFγ according to Example 1: (A) Time dependent in vitro production of CTFγ. Membrane preparations were incubated at 37° C. for the indicated time points. The reaction mixtures were then separated in a soluble fraction (S100; lower panel) and a pellet fraction (P100; upper panel) by ultracentrifugation. These fractions were immunoblotted with antibody 6687. Note the selective accumulation of CTFγ in the S100(lower panel) fraction after 1-2 h incubation time. Very minor amounts of CTFγ were detected in the P100 fraction, which may be due to sticking of the highly hydrophobic CTFγ to membranes or to contamination of the P100 fraction with minor amounts of soluble proteins. (B) Two independent γ-secretase inhibitors (DAPT and “Compound 1”) inhibit the in vitro production of CTFγ. Membrane preparations were incubated with (+) or without (−) 250 nM DAPT (left panel) or 50 μM CM256 (right panel). The S100 fractions of the reaction mixtures were immunoblotted with antibody 6687. […]
CTFγ was generated in vitro from membrane preparations of HEK 293 cells stably transfected with swAPP following previously described procedures (McLendon et al., 2000; Pinnix et al., 2001). […] Following SDS-PAGE on 10-20% Tris-Tricine gels (Invitrogen) samples were analyzed for CTFγ by immunoblotting with antibody 6687.

Assay [3] concerns the target T1, γ-secretase. The experiment in a line: Analysis of CTFγ and βAPP CTFs in membrane fractions of inhibitor-treated HEK 293 cells stably transfected with swAPP (immunoprecipitation/immunoblotting with antibody 6687). The assay is classed as cell-based. The settings on record: increasing concentrations of DAPT for 4 h. How it is done:
FIG. 1: Identification of in vivo produced CTFγ in human cells and mouse brain according to Example 1: (A) Membrane fractions of HEK 293 cells stably transfected with Swedish mutant βAPP695 (swAPP) were analyzed by combined immunoprecipitation/immunoblotting with antibody 6687 to the C-terminus of βAPP. Three βAPP CTFs were detected (C99 (=CTFβ), C83 (=CTFα), and the approximately 6 kDa CTFγ). The same βAPP CTFs including the approximately 6 kDa CTFγ were also observed by immunoblotting with antibody 6687 in mouse brain. (B) The γ-secretase inhibitor DAPT inhibits CTFγ production. HEK 293 cells stably transfected with swAPP were treated with the indicated concentrations of DAPT for 4 h. Upper and middle panel: Membrane fractions were prepared and analyzed for βAPP CTFs by combined immunoprecipitation/immunoblotting with antibody 6687. […] Lower panel: Conditioned media were analyzed for secreted Aβ by combined immunoprecipitation/immunoblotting with antibodies 3926/6E10. […] (C) CTFγ production is dependent on biologically active presenilins. Membrane fractions from control cells expressing PS1 wt or cells stably expressing PS1 D385N were analyzed by combined immunoprecipitation/immunoblotting with antibody 6687. […]
CTFγ was analyzed by combined immunoprecipitation/westernblotting with antibody 6687 of membrane extracts from stably transfected HEK 293 cells or from mouse brain. […]

“Also recorded” adds a separate entry of the source.

For `C[C@H](NC(=O)Cc1cc(F)cc(F)c1)C(=O)N[C@H](C(=O)OC(C)(C)C)c1ccccc1` [DAPT, N-[N-(3,5-difluorophenacetyl)-L-alanyl]-S-phenylglycin t-butyl ester], the “secreted Aβ generation” value in assay [1] is on record as “dose dependent inhibition; also recorded: severely reduced Aβ production”. Besides, the “in vitro CTFγ generation” value in assay [2] (membrane preparations at 37° C., S100 fraction, FIG. 2B left panel) was “significantly reduce CTFγ generation; also recorded: efficiently reduced in vitro generation of CTFγ”. The “remaining in vitro CTFγ production” value in assay [2] (membranes from cells expressing the inactive PS1 D385N mutation, FIG. 2D) is on record as “reduces the remaining in vitro CTFγ production; also recorded: further reduced”. Also, in assay [3] (FIG. 1B middle panel), the CTFγ generation result is listed as “significant block of CTFγ generation; also recorded: dose dependent inhibition of CTFγ generation”. For the same compound, the “CTFβ and CTFα levels” value in assay [3] (FIG. 1B upper panel) was “build up of CTFβ and CTFα; also recorded: increase of βAPP CTFβ and CTFα”.
